In ChEMBL document CHEMBL4393680, “Design, synthesis and biological evaluation of novel thioquinazolinone-based 2-aminobenzamide derivatives as potent histone deacetylase (HDAC) inhibitors” (Eur J Med Chem, 2019):

Experiments:
[1] = tested on: HCT-116; test: Antiproliferative activity against human HCT116 cells assessed as reduction in cell growth at 2 uM incubated for 72 hrs by CCK-8 assay relative to control; format: functional; settings: HCT-116, 72 h
[2] = tested on: SMMC-7721; test: Antiproliferative activity against human SMMC7721 cells assessed as reduction in cell growth at 2 uM incubated for 72 hrs by CCK-8 assay relative to control; format: functional; settings: SMMC-7721, 72 h
[3] = tested on: A-375; test: Antiproliferative activity against human A375 cells assessed as reduction in cell growth at 8 uM incubated for 72 hrs by CCK-8 assay relative to control; format: functional; settings: A-375, 72 h
[4] = tested on: A549; test: Antiproliferative activity against human A549 cells assessed as reduction in cell growth incubated for 72 hrs by CCK-8 assay; format: functional, cell-based; settings: A549, 72 h
[5] = tested on: A549; test: Antiproliferative activity against human A549 cells assessed as reduction in cell growth at 8 uM incubated for 72 hrs by CCK-8 assay relative to control; format: functional; settings: A549, 72 h
[6] = tested on: A-375; test: Antiproliferative activity against human A375 cells assessed as reduction in cell growth at 2 uM incubated for 72 hrs by CCK-8 assay relative to control; format: functional; settings: A-375, 72 h
[7] = tested on: SMMC-7721; test: Antiproliferative activity against human SMMC7721 cells assessed as reduction in cell growth at 8 uM incubated for 72 hrs by CCK-8 assay relative to control; format: functional; settings: SMMC-7721, 72 h
[8] = tested on: HCT-116; test: Antiproliferative activity against human HCT116 cells assessed as reduction in cell growth at 8 uM incubated for 72 hrs by CCK-8 assay relative to control; format: functional; settings: HCT-116, 72 h
[9] = tested on: HeLa; test: Antiproliferative activity against human HeLa cells assessed as reduction in cell growth at 8 uM incubated for 72 hrs by CCK-8 assay relative to control; format: functional
[10] = tested on: HeLa; test: Antiproliferative activity against human HeLa cells assessed as reduction in cell growth at 2 uM incubated for 72 hrs by CCK-8 assay relative to control; format: functional
[11] = tested on: A549; test: Antiproliferative activity against human A549 cells assessed as reduction in cell growth at 2 uM incubated for 72 hrs by CCK-8 assay relative to control; format: functional; settings: A549, 72 h
[12] = tested on: NIH3T3; test: Cytotoxicity against mouse NIH/3T3 cells assessed as reduction in cell viability after 48 hrs by CCK8 assay; format: cell-based; settings: NIH3T3, 48 h
[13] = tested on: HeLa; test: Antiproliferative activity against human HeLa cells assessed as reduction in cell growth incubated for 72 hrs by CCK-8 assay; format: functional, cell-based
[14] = tested on: SMMC-7721; test: Antiproliferative activity against human SMMC7721 cells assessed as reduction in cell growth incubated for 72 hrs by CCK-8 assay; format: functional, cell-based; settings: SMMC-7721, 72 h
[15] = tested on: SMMC-7721; test: Induction of apoptosis in human SMMC7721 cells assessed as early apoptotic cells at 4 uM incubated for 48 hrs by Annexin-V-FITC/propidium iodide staining based flow cytometry (Rvb=2.88%); format: functional
[16] = tested on: SMMC-7721; test: Induction of apoptosis in human SMMC7721 cells assessed as viable cells at 4 uM incubated for 48 hrs by Annexin-V-FITC/propidium iodide staining based flow cytometry (Rvb=93.5%); format: functional; settings: SMMC-7721, 48 h, read-out: Activity
[17] = tested on: SMMC-7721; test: Induction of apoptosis in human SMMC7721 cells assessed as necrotic cells at 4 uM incubated for 48 hrs by Annexin-V-FITC/propidium iodide staining based flow cytometry (Rvb=1.88%); format: functional
[18] = tested on: SMMC-7721; test: Cell cycle arrest in human SMMC7721 cells assessed as accumulation at G0/G1 phase at 1 uM incubated for 48 hrs by propidium iodide staining based flow cytometry (Rvb=77%); format: functional
[19] = tested on: SMMC-7721; test: Cell cycle arrest in human SMMC7721 cells assessed as accumulation at S phase at 4 uM incubated for 48 hrs by propidium iodide staining based flow cytometry (Rvb=6.83%); format: functional
[20] = tested on: SMMC-7721; test: Cell cycle arrest in human SMMC7721 cells assessed as accumulation at G0/G1 phase at 0.25 uM incubated for 48 hrs by propidium iodide staining based flow cytometry (Rvb=77%); format: functional
[21] = tested on: SMMC-7721; test: Induction of apoptosis in human SMMC7721 cells assessed as early apoptotic cells at 0.25 uM incubated for 48 hrs by Annexin-V-FITC/propidium iodide staining based flow cytometry (Rvb=2.88%); format: functional
[22] = tested on: SMMC-7721; test: Induction of apoptosis in human SMMC7721 cells assessed as viable cells at 1 uM incubated for 48 hrs by Annexin-V-FITC/propidium iodide staining based flow cytometry (Rvb=93.5%); format: functional; settings: SMMC-7721, 48 h, read-out: Activity
[23] = tested on: SMMC-7721; test: Induction of apoptosis in human SMMC7721 cells assessed as necrotic cells at 0.25 uM incubated for 48 hrs by Annexin-V-FITC/propidium iodide staining based flow cytometry (Rvb=1.88%); format: functional
[24] = tested on: SMMC-7721; test: Cell cycle arrest in human SMMC7721 cells assessed as accumulation at S phase at 0.25 uM incubated for 48 hrs by propidium iodide staining based flow cytometry (Rvb=6.83%); format: functional
[25] = tested on: SMMC-7721; test: Cell cycle arrest in human SMMC7721 cells assessed as accumulation at G2/M phase at 4 uM incubated for 48 hrs by propidium iodide staining based flow cytometry (Rvb=16.17%); format: functional
[26] = tested on: SMMC-7721; test: Induction of apoptosis in human SMMC7721 cells assessed as late apoptotic cells at 1 uM incubated for 48 hrs by Annexin-V-FITC/propidium iodide staining based flow cytometry (Rvb=1.73%); format: functional
[27] = tested on: SMMC-7721; test: Induction of apoptosis in human SMMC7721 cells assessed as viable cells at 0.25 uM incubated for 48 hrs by Annexin-V-FITC/propidium iodide staining based flow cytometry (Rvb=93.5%); format: functional; settings: SMMC-7721, 48 h, read-out: Activity
[28] = biological target: Histone deacetylase 2 (Homo sapiens, UniProt Q92769); test: Inhibition of human recombinant His-tagged HDAC2 ([…]) expressed in baculovirus infected insect cells using FLUOR DE LYS Green as substrate preincubated for 10 mins followed by substrate addition and measured after 30 mins by fluorescence method
Histone deacetylase 2, sequence (Q92769 whole entry): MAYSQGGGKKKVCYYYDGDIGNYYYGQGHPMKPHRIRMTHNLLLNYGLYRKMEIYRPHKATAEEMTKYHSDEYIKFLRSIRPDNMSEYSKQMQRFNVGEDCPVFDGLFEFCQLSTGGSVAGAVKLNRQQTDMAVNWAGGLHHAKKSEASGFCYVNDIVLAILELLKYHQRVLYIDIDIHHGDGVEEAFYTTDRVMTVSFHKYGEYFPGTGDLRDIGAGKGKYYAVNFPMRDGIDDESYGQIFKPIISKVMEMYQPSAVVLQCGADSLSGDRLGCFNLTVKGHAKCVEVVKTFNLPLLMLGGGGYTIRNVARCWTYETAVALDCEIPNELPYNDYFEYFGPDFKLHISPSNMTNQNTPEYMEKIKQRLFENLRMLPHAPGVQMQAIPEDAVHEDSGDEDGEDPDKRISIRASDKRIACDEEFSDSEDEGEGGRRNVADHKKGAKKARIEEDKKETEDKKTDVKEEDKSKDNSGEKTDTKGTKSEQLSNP

[29] = tested on: A-375; test: Antiproliferative activity against human A375 cells assessed as reduction in cell growth incubated for 72 hrs by CCK-8 assay; format: functional, cell-based; settings: A-375, 72 h
[30] = tested on: SMMC-7721; test: Induction of apoptosis in human SMMC7721 cells assessed as late apoptotic cells at 0.25 uM incubated for 48 hrs by Annexin-V-FITC/propidium iodide staining based flow cytometry (Rvb=1.73%); format: functional
[31] = tested on: SMMC-7721; test: Cell cycle arrest in human SMMC7721 cells assessed as accumulation at G0/G1 phase at 4 uM incubated for 48 hrs by propidium iodide staining based flow cytometry (Rvb=77%); format: functional
[32] = tested on: SMMC-7721; test: Cell cycle arrest in human SMMC7721 cells assessed as accumulation at G2/M phase at 0.25 uM incubated for 48 hrs by propidium iodide staining based flow cytometry (Rvb=16.17%); format: functional
[33] = tested on: SMMC-7721; test: Cell cycle arrest in human SMMC7721 cells assessed as accumulation at G2/M phase at 1 uM incubated for 48 hrs by propidium iodide staining based flow cytometry (Rvb=16.17%); format: functional
[34] = tested on: SMMC-7721; test: Cell cycle arrest in human SMMC7721 cells assessed as accumulation at S phase at 1 uM incubated for 48 hrs by propidium iodide staining based flow cytometry (Rvb=6.83%); format: functional
[35] = tested on: SMMC-7721; test: Induction of apoptosis in human SMMC7721 cells assessed as early apoptotic cells at 1 uM incubated for 48 hrs by Annexin-V-FITC/propidium iodide staining based flow cytometry (Rvb=2.88%); format: functional
[36] = tested on: SMMC-7721; test: Induction of apoptosis in human SMMC7721 cells assessed as late apoptotic cells at 4 uM incubated for 48 hrs by Annexin-V-FITC/propidium iodide staining based flow cytometry (Rvb=1.73%); format: functional
[37] = tested on: SMMC-7721; test: Induction of apoptosis in human SMMC7721 cells assessed as necrotic cells at 1 uM incubated for 48 hrs by Annexin-V-FITC/propidium iodide staining based flow cytometry (Rvb=1.88%); format: functional

Question: Which results are given for Cn1c(SCc2ccc(/C=C/C(=O)Nc3ccccc3N)cc2)nc2cc(Cl)ccc2c1=O?
Answer: inhibition at 2 µM [1]: 2.1%; inhibition at 2 µM [2]: 7.8%; inhibition at 8 µM [3]: 10.2%; IC50 [4]: 16.4 µM; inhibition at 8 µM [5]: 68.8%; inhibition at 2 µM [6]: 2.4%; inhibition at 8 µM [7]: 20.9%; inhibition at 8 µM [8]: 21.5%; inhibition at 8 µM [9]: 38.8%; inhibition at 2 µM [10]: 29.3%; inhibition at 2 µM [11]: 15.5%

Question: What does the source list for Nc1ccc(F)cc1NC(=O)c1ccc(CNC(=O)/C=C/c2cccnc2)cc1?
Answer: IC50 [12]: 2.37 µM; inhibition at 2 µM [1]: 61.1%; IC50 [13]: 12.6 µM; inhibition at 2 µM [2]: 42.1%; inhibition at 8 µM [3]: 63.6%; IC50 [14]: > 26 µM; Activity [15]: 15.2%; viability at 4 µM [16]: 61.6%; Activity [17]: 4.08%; Activity [18]: 76.44%; Activity [19]: 13.53%; Activity [20]: 77.96%; Activity [21]: 5.74%; viability at 1 µM [22]: 84.7%; Activity [23]: 1.77%; inhibition at 8 µM [5]: 25.5%; Activity [24]: 13.28%; inhibition at 2 µM [6]: 27.6%; Activity [25]: 9.69%; inhibition at 8 µM [7]: 58.9%; inhibition at 8 µM [8]: 87.4%; Activity [26]: 7.88%; inhibition at 8 µM [9]: 52%; viability at 0.25 µM [27]: 88.6%; inhibition at 2 µM [10]: 13.4%; IC50 [28]: 0.31 µM; IC50 [29]: 4.21 µM; Activity [30]: 3.88%; inhibition at 2 µM [11]: 8%; Activity [31]: 76.78%; Activity [32]: 8.76%; Activity [33]: 10.4%; Activity [34]: 13.16%; Activity [35]: 5.09%; Activity [36]: 19.1%; Activity [37]: 2.34%
